Where two headings read alike, the source gives them in different places.
Columns and labels:
human CRTH2 [1] = molecular target: T1, human CRTH2 (Homo sapiens, UniProt Q9Y5Y4); assay: Measurement of Ca2+ mobilization in the human CRTH2-transfected L1.2 cell line (Assay 1); format: cell-based; conditions: PGD2-induced Ca2+ mobilization, CRTH2-transfected L1.2 cells, compounds at purity of about 40 to 90%
T1 construct: expressed in transfected cells
T1 sequence (Q9Y5Y4 1-395): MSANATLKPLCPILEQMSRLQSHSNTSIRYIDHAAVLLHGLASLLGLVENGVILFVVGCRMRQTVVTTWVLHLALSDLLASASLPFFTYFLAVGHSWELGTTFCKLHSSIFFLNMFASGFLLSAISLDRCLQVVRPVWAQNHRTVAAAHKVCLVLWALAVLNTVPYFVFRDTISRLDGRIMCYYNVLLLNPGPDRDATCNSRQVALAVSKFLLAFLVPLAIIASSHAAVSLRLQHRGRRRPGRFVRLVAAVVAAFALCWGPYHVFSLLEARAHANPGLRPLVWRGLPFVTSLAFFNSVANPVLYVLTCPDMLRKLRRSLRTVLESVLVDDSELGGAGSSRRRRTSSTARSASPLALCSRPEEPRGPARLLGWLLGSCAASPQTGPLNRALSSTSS
Description: (§1) Human CRTH2 cDNA was amplified from human eosinophil cDNA with gene specific primers containing restriction sites for cloning into pEAK vector (Edge Bio Systems). The human CRTH2 cDNA was cloned into the mammalian expression vector pEAK. This expression plasmid (40 μg) was transfected into L1.2 cells, at a cell density of 1×10^7 cells/500 μl, by using electroporation apparatus (Gene Pulser II, BioRad) at 250V/1,000 μF. One day after the transfection, puromycin (1 μg/ml, Sigma) was added into the cell culture plates. Two weeks after the transfection, grown cells were picked up for further growth.
Ca^2+ loading buffer was prepared by mixing 5 μl of Fluo-3AM (2 mM in DMSO, final 1 μM, Molecular Probes) and 10 μl of pluronic F-127 (Molecular Probes) and diluting the resulting mixture in 10 ml of Ca^2+ assay buffer (20 mM HEPES pH 7.6, 0.1% BSA, 1 mM probenecid, Hanks' solution). The CRTH2 transfected cells which were prepared in Example 1 were washed with PBS, resuspended in Ca^2+ loading buffer at 1×10^7 cells/ml, and incubated for 60 min at room temperature. After incubation, cells were washed and resuspended in Ca^2+ assay buffer, then dispensed into transparent-bottom 96-well plates (#3631, Costar) at 2×10^5 cells/well. Cells were incubated with various concentrations of test compound for 5 minutes at room temperature. The emitted 480 nm fluorescence was measured on FDSS6000, a Ca^2+-measurement apparatus (Hamamatsu Photonics, Hamamatsu, Japan).
Assay results in Assay 1 are shown in Examples and tables of the Examples below. The data corresponds to the compounds as yielded by solid phase synthesis and thus to levels of purity of about 40 to 90%. For practical reasons, the compounds are grouped in four classes of activity as follows: IC50=A(< or =)10 nM<B(< or =)100 nM<C(< or =)500 nM<D

human CRTH2 [2] = molecular target: T1, human CRTH2; assay: Human CRTH2 receptor binding assay (Assay 2); conditions: binding to puromycin-resistant CRTH2 L1.2 transfectants
Description: as §1
CRTH2 transfectants were washed once with PBS and resuspended in binding buffer (50 mM Tris-HCl, pH7.4, 40 mM MgCl2, 0.1% BSA, 0.1% NaN3). 100 μl of cell suspension (2×10^5 cells), [^3H]-labeled PGD2, and various concentrations of test compound were then mixed in a 96-well U-bottom polypropylene plate and incubated for 60 min at room temperature to allow binding to occur. After incubation, the cell suspension was transferred to a filtration plate (#MAFB, Millipore) and washed 3 times with binding buffer. Scintillant was added to the filtration plate, and radioactivity remaining on the filter was measured by TopCount (Packard), a scintillation counter. Non-specific binding was determined by incubating the cell suspension and [^3H]-labeled PGD2 in the presence of 1 μM of unlabeled PGD2.

[3] = read-out: In vitro activity grade

Row | SMILES | IC50 (human CRTH2 [1]; [3]) [µM] | IC50 (human CRTH2 [1]; read-out: Activity class) [µM] | other results
1 | O=C(O)Cc1c(Cl)nc(Cc2ccc(NC(=O)c3ccc(C(F)(F)F)cc3)cc2)n2ccnc12 [Example 1-1, [7-Chloro-5-(4-{[4-(trifluoromethyl)benzoyl]amino}benzyl)imidazo[1,2-c]pyrimidin-8-yl]acetic acid] | 0.01 to 0.1 | – | –
2 | O=C(O)Cc1c(Cl)nc(Cc2ccc(NC(=O)c3ccc(Cl)c(Cl)c3)cc2)n2ccnc12 [Example 1-2, (7-chloro-5-{4-[(3,4-dichlorobenzoyl)amino]benzyl}imidazo[1,2-c]pyrimidin-8-yl)acetic acid] | – | < 0.01 | –
3 | O=C(O)Cc1c(Cl)nc(Cc2ccc(NC(=O)c3ccc4ccccc4c3)cc2)n2ccnc12 [Example 1-3, {7-chloro-5-[4-(2-naphthoylamino)benzyl]imidazo[1,2-c]pyrimidin-8-yl}acetic acid] | – | 0.01 to 0.1 | –
4 | O=C(O)Cc1c(Cl)nc(Cc2ccc(NC(=O)/C=C/c3ccccc3)cc2)n2ccnc12 [Example 1-4] | – | < 0.01 | –
5 | O=C(O)Cc1c(Cl)nc(Cc2ccc(NC(=O)/C=C/c3ccc(Cl)cc3)cc2)n2ccnc12 [Example 1-5, [7-chloro-5-(4-{[(2E)-3-(4-chlorophenyl)prop-2-enoyl]amino}benzyl)imidazo[1,2-c]pyrimidin-8-yl]acetic acid] | – | 0.01 to 0.1 | –
6 | O=C(O)Cc1cnc(Cc2ccc(NC(=O)c3ccc(C(F)(F)F)cc3)cc2)n2ccnc12 [Example 2-1, [5-(4-{[4-(trifluoromethyl)benzoyl]amino}benzyl)imidazo[1,2-c]pyrimidin-8-yl]acetic acid] | 0.01 to 0.1 | – | –
7 | O=C(O)Cc1cnc(Cc2ccc(NC(=O)c3ccc(Cl)c(Cl)c3)cc2)n2ccnc12 [Example 2-2, (5-{4-[(3,4-Dichlorobenzoyl)amino]benzyl}imidazo[1,2-c]pyrimidin-8-yl)acetic acid] | 0.1 to 0.5 | – | –
8 | CCCCC[C@H](O)/C=C/[C@H]1C(=O)C[C@H](O)[C@@H]1C/C=C\CCCC(=O)O [[^3H]-labeled PGD2] | – | – | Kd (human CRTH2 [2]): 0.0063 µM
